Assay results as given in US20140023611A1 (priority 2010, published 2014).

These compounds were tested against T1, rat NaP2b (SLC34A2) (Rattus norvegicus, UniProt Q9JJ09) (assay: Inhibition of NaP2b-mediated Pi (33P) uptake in transfected HEK293 cells, rat NaP2b). Settings: 33P Pi uptake, 0.1 mM phosphate, value given as pIC50 range.
T1 construct: host or cells: HEK293
T1 sequence (Q9JJ09 1-695): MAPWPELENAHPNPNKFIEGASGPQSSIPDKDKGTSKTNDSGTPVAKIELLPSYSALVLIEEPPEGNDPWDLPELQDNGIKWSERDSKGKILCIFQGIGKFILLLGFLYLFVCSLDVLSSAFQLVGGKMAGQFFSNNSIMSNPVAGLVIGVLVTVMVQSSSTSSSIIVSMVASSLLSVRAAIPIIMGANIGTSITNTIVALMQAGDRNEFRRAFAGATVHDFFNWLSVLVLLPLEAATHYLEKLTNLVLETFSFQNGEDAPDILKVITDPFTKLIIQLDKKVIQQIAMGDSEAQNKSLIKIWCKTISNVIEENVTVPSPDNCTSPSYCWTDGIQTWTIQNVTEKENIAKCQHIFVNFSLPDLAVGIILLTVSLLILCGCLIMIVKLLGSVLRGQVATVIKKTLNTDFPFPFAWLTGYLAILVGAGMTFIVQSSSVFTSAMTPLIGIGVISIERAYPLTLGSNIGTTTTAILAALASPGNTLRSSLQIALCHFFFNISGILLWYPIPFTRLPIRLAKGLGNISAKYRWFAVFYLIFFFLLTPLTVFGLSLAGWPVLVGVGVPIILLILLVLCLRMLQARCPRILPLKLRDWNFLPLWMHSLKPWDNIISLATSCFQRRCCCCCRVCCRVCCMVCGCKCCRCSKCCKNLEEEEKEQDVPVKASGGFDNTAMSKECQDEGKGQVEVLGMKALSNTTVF
Assay type: cell-based
Experimental: HEK293 cells were obtained from the American Type Culture collection and propagated per their instructions. […] The sequence of the human protein was mutated to insert a threonine after residue 37, and to introduce a N39D mutation.
Cells were seeded into 96-well plates at 25,000 cells/well and cultured overnight. Lipofectamine 2000 (Invitrogen) was used to introduce the NaP2b cDNA, and the cells were allowed to approach confluence during a second overnight incubation. […] Each compound was tested at twelve concentrations ranging from 0.1 nM to 30 uM. Assays were run in duplicate.
Cells were lysed by addition of 20 μL 0.1% Tween 80 followed by 100 μL scintillation fluid, and counted using a TopCount (Perkin Elmer).
pIC50 (the negative log of the IC50) values of the test compounds were calculated using GraphPad Prism.

| SMILES | IC50 |
| --- | --- |
| COc1c(C(=O)Nc2ccc(N3CCCCC3)cc2-c2cc(C(=O)NCc3cccc(C(F)(F)F)c3)ccn2)cccc1C(=O)N(C)CCN1CCOCC1 [Example 11.3, 2-Methoxy-N1-methyl-N1-(2-morpholinoethyl)-N3-(4-(piperidin-1-yl)-2-(4-((3-(trifluoromethyl)benzyl)carbamoyl)pyridin-2-yl)phenyl)isophthalamide] | 10 to 31.6 µM |
| O=C(NCc1cccc(C(F)(F)F)c1)c1ccnc(-c2cc(N3CCCCC3)ccc2NC(=O)c2cccc(Cn3cc(CCO)nn3)c2)c1 [Example 75, 2-(2-(3-((4-(2-Hydroxyethyl)-1H-1,2,3-triazol-1-yl)methyl)benzamido)-5-(piperidin-1-yl)phenyl)-N-(3-(trifluoromethyl)benzyl)isonicotinamide] | 10 to 31.6 µM |
| CN(CCN1CCOCC1)C(=O)c1cccc(C(=O)Nc2ccc(N3CC[C@H]4CCCC[C@@H]4C3)cc2-c2cc(C(=O)NCc3cccc(C(F)(F)F)c3)ccn2)c1 [Example 111] | 10 to 31.6 µM |
| CCN(CC)c1ccc(NC(=O)c2cccc(CCCOCCOCCOCCOCCNS(=O)(=O)c3ccc(CCC(=O)N(CCOC)CCOCCOCCOCCOCCOCCOCCOC)cc3)c2)c(-c2cc(C(=O)NCc3cccc(C(F)(F)F)c3)ccn2)c1 [Example 295, 2-(5-(diethylamino)-2-(3-(1-(4-(23-(2-methoxyethyl)-24-oxo-2,5,8,11,14,17,20-heptaoxa-23-azahexacosan-26-yl)phenylsulfonamido)-3,6,9,12-tetraoxapentadecan-15-yl)benzamido)phenyl)-N-(3-(trifluoromethyl)benzyl)isonicotinamide] | 1 to 7.94 µM |
| O=C(O)CCSCc1cccc(C(=O)Nc2ccc(N3CCCCC3)cc2-c2cc(C(=O)NCc3cccc(C(F)(F)F)c3)cc(Cl)n2)c1 [Example 86] | 1 to 7.94 µM |
| O=C(O)CCCC1CCN(C(=O)c2cccc(C(=O)Nc3ccc(N4CCCCC4)cc3-c3cc(C(=O)NCc4cccc(C(F)(F)F)c4)ccn3)c2)CC1 [Example 112] | 1 to 7.94 µM |
| O=C(O)CCCc1ccc(SCc2cccc(C(=O)Nc3ccc(N4CCCCC4)cc3-c3cc(C(=O)NCc4cccc(C(F)(F)F)c4)ccn3)c2)cc1 [Example 8.9] | 1 to 7.94 µM |
| CN(CCN1CCC[C@H]1C(=O)N(C)CCOCCOCCOCCC(=O)OC(C)(C)C)C(=O)c1cccc(C(=O)Nc2ccc(N3CCCCC3)cc2-c2cc(C(=O)N[C@H]3CCCc4ccccc43)ccn2)c1 [Example 190, tert-Butyl 2-methyl-1-((S)-1-(2-(N-methyl-3-((4-(piperidin-1-yl)-2-(4-(((S)-1,2,3,4-tetrahydronaphthalen-1-yl)carbamoyl)pyridin-2-yl)phenyl)carbamoyl)benzamido)ethyl)pyrrolidin-2-yl)-1-oxo-5,8,11-trioxa-2-azatetradecan-14-oate] | 1 to 7.94 µM |
| O=C(NCCOCCO)c1cccc(C(=O)Nc2ccc(Cl)cc2-c2cc(NCc3cccc(C(F)(F)F)c3)ncn2)c1 [Example 65, N1-(4-Chloro-2-(6-((3-(trifluoromethyl)benzyl)amino)pyrimidin-4-yl)phenyl)-N3-(2-(2-hydroxyethoxy)ethyl)isophthalamide] | 10 to 31.6 µM |
| O=C(O)Cc1ccc(SCc2cccc(C(=O)Nc3ccc(N4CCCCC4)cc3-c3cc(C(=O)NCc4cccc(C(F)(F)F)c4)ccn3)c2)cc1 [Example 8.17] | < 1 µM |
| CN(CCNC(=O)OC(C)(C)C)C(=O)c1cccc(C(=O)Nc2ccc(N3CCCCC3)cc2-c2cc(C(=O)NCc3cccc(C(F)(F)F)c3)ccn2)c1 [Example 4.22] | 10 to 31.6 µM |
| CCN(CC)c1ccc(NC(=O)c2cccc(CCCOCCOCCOCCOCCC(=O)N3CCN(CCOCCOCCOCCOCCOCCOCCOC)C(=O)C3)c2)c(-c2cc(C(=O)NCc3cccc(C(F)(F)F)c3)ccn2)c1 [Example 258, 2-(2-(3-(16-(4-(2,5,8,11,14,17,20-heptaoxadocosan-22-yl)-3-oxopiperazin-1-yl)-16-oxo-4,7,10,13-tetraoxahexadecyl)benzamido)-5-(diethylamino)phenyl)-N-(3-(trifluoromethyl)benzyl)isonicotinamide] | 1 to 7.94 µM |
| O=C(O)CCSCc1cccc(C(=O)Nc2ccc(N3CCCCC3)cc2-c2cc(C(=O)NC3Cc4ccccc4C3)ccn2)c1 [Example 1.35] | 1 to 7.94 µM |
